Assays:
[1] = test system: uptake of SOD1 aggregates into neuro-2a cells; assay: flow cytometric determination of the uptake of fluorescently labeled SOD1 aggregates into neuro-2a cells; format: cell-based; settings: for uptake of fluorescently labeled SOD1 aggregates after treatment with endocytosis inhibitors: flow cytometry, FIG. 3
ALS = settings: clinical studies, compared to placebo, some individuals; cited from earlier work
[2] = test system: uptake of SOD1 aggregates into primary cortical neurons; assay: flow cytometric determination of the uptake of fluorescently labeled SOD1 aggregates into primary cortical neurons; format: cell-based; settings: primary cortical neurons of wild-type mice, treated as for neuro-2a cells, FIG. 7A
Description: In order to investigate whether the results in neuro-2a cells can be expanded to primary cortical neurons, isolated, cultured and treated primary cortical neurons of wild-type mice were treated with heparinase and chondroitinase as previously for neuro-2a cells, before they were exposed to DyLight 488-labeled SOD1 aggregates (FIG. 7A). Likewise, the uptake of SOD1 aggregates after blocking with heparin was tested, as previously carried out for neuro-2a cells (FIG. 7A). The uptake of SOD1 aggregates was again quantified by flow cytometry. […] The “***” or “****” above the bars indicate the statistical significance of the results. “***” corresponds to a significance with p≤0.001 and “****” corresponds to a significance with p≤0.0001 in comparison to the control.

prion diseases = settings: in vivo; cited from earlier work

Row | Compound | uptake of fluorescently labeled SOD1 aggregates after treatment with endocytosis inhibitors ([1]; neuro-2a cells) | other results
1 | CCN(c1nc(N)c(C(=O)N=C(N)N)nc1Cl)C(C)C [EIPA, 5-N-ethyl-N-isopropyl amiloride] | reduced the uptake of SOD1 aggregates significantly | 
2 | Oc1ccc2ccccc2c1SSc1c(O)ccc2ccccc12 [IPA-3, 2,2′-dihydroxy-1,1′-dinaphthyl disulfide] | reduced the uptake of SOD1 aggregates significantly | 
3 | CC1=NN(c2ccccc2)C(=O)C1 [Radicava, edaravone] |  | decrease in bodily function measured by ALSFRS-R (ALS): significantly lower decrease in bodily function compared to placebo
4 | CN(C)CCCN1c2ccccc2Sc2ccc(Cl)cc21 [chloropromazine, Chlorpromazine] | Neither the chloropromazine treatment nor the genistein treatment inhibited the uptake of SOD1 aggregates significantly | 
5 | C=C1[C@@H](C)[C@H]2[C@H](Cc3ccccc3)NC(=O)[C@]23[C@H](OC(C)=O)/C=C/[C@@](C)(O)C(=O)[C@@H](C)C/C=C/[C@H]3[C@@H]1O [cytochalasin D] | significantly inhibited the uptake | 
6 | O=C(N/N=C/c1ccc(O)c(O)c1)c1cc2ccccc2cc1O [dynasore] | inhibited the uptake of SOD1 aggregates | 
7 | O=c1c(-c2ccc(O)cc2)coc2cc(O)cc(O)c12 [genistein, Genistein] | Neither the chloropromazine treatment nor the genistein treatment inhibited the uptake of SOD1 aggregates significantly | 
8 | [Na+].[O-][Cl+2]([O-])[O-] [sodium chlorate] |  | uptake of SOD1 aggregates after sodium chlorate treatment [1]: reduced the uptake of SOD1 aggregates in a dose-dependent manner
9 | heparin |  | uptake of DyLight 488-labeled SOD1 aggregates into primary cortical neurons [2]: inhibits uptake of SOD1 aggregates into primary cortical neurons; uptake of SOD1 aggregates pre-treated with heparin ([1]; aggregates treated at 4° C. with 1 mg/mL heparin for 6 hours, neuro-2a cells incubated 6 hours, FIG. 4B): inhibited the uptake of both wild-type and mutated SOD1 aggregates
10 | methyl-β-cyclodextrin | significantly reduced the uptake of SOD1 aggregates | 
11 | pentosan polysulfate sodium [PPS] |  | survival of infected animals (prion diseases): extending the survival of infected animals after intracerebroventricular perfusion in a dose-dependent manner; cellular uptake of fluorescently labeled wild-type and mutated SOD1 aggregates after PPS treatment ([1]; neuro-2a cells, increasing PPS concentrations, FIG. 5): competitively inhibited the cellular uptake of fluorescently labeled wild-type and mutated SOD1 aggregates at non-cytotoxic concentrations

Source: patent US20240033282A1, “METHOD FOR IDENTIFYING AND/OR FOR OBTAINING AN ACTIVE SUBSTANCE FOR THE TREATMENT AND THERAPY OF FAMILIAL AMYOTROPHIC LATERAL SCLEROSIS, AND USE OF AN ACTIVE SUBSTANCE FOR THE TREATMENT OF THIS DISEASE” (Forschungszentrum Juelich GmbH, priority 2020, published 2024)
